Consider three compounds from US9522935B2, “Commands and method of treating cancer via RHO pathway” (priority 2013, dated 2016).

Experiment [1] concerns pancreatic cancer cell lines. Kind of experiment: Nude mouse model of pancreatic cancer (xenograft), tumor size. The conditions noted are these: 43 days. The experiment is classed as in vivo, NOD/SCID mice. The protocol: Two strains of pancreatic cancer cell lines were selected to be grafted to nonobese diabetic/severe combined immunodeficient (NOD/SCID) mice, and the tumor was inoculated in mouse ventral sides. About two weeks, they were used as a nude mouse model of pancreatic cancer. […] Each of the above groups. The treatment continued for 43 days (gemcitabine alone group 2 times a week; other groups 3 times a week), and then tumor size was recorded as shown in FIG. 16. […] Further experiments were conducted to study the effects of the combinational use of LD030 with gemcitabine as compared being used alone on tumor inhibition. Four treatment groups were set up: (a) blank control, (2) gemcitabine (25 mg/kg/time, 2 times a week), (3) LD030 (0.5 mg/kg/time, 3 times a week), (4) LD030 (0.5 mg/kg/time, 3 times a week) together with gemcitabine (25 mg/kg/time, 2 times a week).

For experiment [2], the system named is HepG2 cells. The experiment can be described thus: Nude mouse model of hepatocellular carcinoma (HepG2), growth rate. The experiment is classed as in vivo, nude mice. The conditions noted are these: nude mouse model, 75 mg/kg, twice a day, versus blank carrier control. Here is the method: In contrast, LD30 (1 mg/kg/time, twice a day) reduced the growth rate of HepG2 cells by about 63%, with statistical significance (p<0.05) when compared with the ethanol control.
LD030 was also compared with Nexavar for their effects on the growth rate of HepG2 cells.
A further study was conducted on liver cancer cell line in nude mice (HepG2), where Nexavar's dosage was 30 mg/kg, twice a day and LD030's dosage was 1 mg/kg, twice a day along with a blank control and a combination of LD030 and Nexavar. The result is shown in FIG. 21 where Nr stands for Nexavar. […] When compared with the blank, LD030's effect is statistically significant (p<0.05).

Experiment [3] concerns non-small lung cancer cell line A549. The experiment can be described thus: MTT assay, compounds related to LD030 on A549 cells. The class given is cell-based. Particulars: Homo sapiens, A549, 48 hours, read-out: Effects on A549 Cells (inhibitory percentage). Here is the method:
(§1) MTT assay was used to detect cell viability after being treated with different compounds of the present invention related to LD030. The cell lines treated were on non-small lung cancer cell line A549, HepG2 cells and Panc1 cells.
(§2) MTT preservation solution preparation: 0.5 g MTT was dissolved in 100 ml of phosphate buffer solution (PBS), and bacteria contaminates were removed with a 0.22 μm membrane filter to obtain 0.5% MTT solution, which was stored in the dark at −20° C.
(§3) MTT working solution preparation: MTT preservation solution was diluted 10 times with sterile PBS to obtain MTT working solution.
(§4) 1640 complete medium preparation: 1640 base medium was added with an amount of fetal bovine serum (FBS) so that the medium contains 10% FBS by volume. Then an amount of double-antibody (i.e., penicillin and streptomycin) was added to make final concentration of penicillin at 100 units/ml and streptomycin at 100 ug/ml.
(§5) The experimental procedure is as follows:
(§6) (1) Take trypsin digested logarithmic phase cells and adjust the concentration of the cell suspension to 6×10^4 cell/ml, and then add 100 ul suspension of the cells under the test to each well on a 96-well plate and adjusted to a density of 6000 cells/well. The edge orifice is filled with sterile PBS.
(§7) (2) Placed the 96-well plate into a 37° C. incubator with 5% CO2 and incubate it overnight.
(§8) (3) Dissolve the test compounds in 200 ul DMSO to get a 5 mg/ml solution and dilute it to get 100 uM, 10 uM, 1 uM and 0.1 uM solutions. Add 100 ul of a solution to each of three repeat wells. Set a control well which has cells but without the compound of the present invention and a blank cell which contains no cells.
(§9) (4) Put the 96-well plate into a 37° C. incubator with 5% CO2 and incubate it for 48 hours. Examine the cells daily under a microscope.
(§10) (5) After being cultured for 48 hours, centrifuge and discard the culture liquid. Add 100 ul MTT working solution to each well, and continue incubating for 4 h.
(§11) (6) Terminate the culture, and carefully remove the culture medium. Then add 100 ul DMSO to each well and shake it at a low speed in a shaker for 10 min to make all crystals fully dissolved. The absorbance value of each well was measured by an enzyme-linked immunosorbent detector at the OD570 nm, and the inhibition rate of the different compounds with different concentration on cell growth can be obtained.
On the technique in general: Tetrazolium dyes change colour on reduction, which living cells bring about.

Experiment [4] has as its system HepG2 cells. Kind of experiment: MTT assay, compounds related to LD030 on HepG2 cells. The class given is cell-based, human. Particulars: Homo sapiens, HepG2, 48 hours, read-out: Effects on HepG2 Cells (inhibitory percentage). Here is the method: as §1, §2, §3, §4, §5, §6, §7, §8, §9, §10, §11
The next experiment has as its system Panc1 cells. The experiment can be described thus: MTT assay, compounds related to LD030 on Panc1 cells. Particulars: Homo sapiens, PANC-1, 48 hours, read-out: Effects on Panc1 Cells (inhibitory percentage). The experiment is classed as cell-based, human. Here is the method: as §1, §2, §3, §4, §5, §6, §7, §8, §9, §10, §11

For `Nc1ccn([C@@H]2O[C@H](CO)[C@@H](O)C2(F)F)c(=O)n1` [gemcitabine, reference compound], the tumor volume reduced in experiment [1] (25 mg/kg/time gemcitabine, FIG. 15) is 37%. The tumor size reduced in experiment [1] (gemcitabine 25 mg/kg/time, 2 times a week, FIG. 17) is on record as 37%.
Regarding `CNC(=O)c1cc(Oc2ccc(NC(=O)Nc3ccc(Cl)c(C(F)(F)F)c3)cc2)ccn1` [Nexavar, reference compound], in the experiment on HepG2 cells [2], the “reduction of growth rate of HepG2 cells” value is “about 80%”.
For `CC(=O)O[C@H]1CC[C@@]2(C)[C@@H](CCC34OC32CC[C@]2(C)C(C(C)CCC3OC3(C)C)CC[C@@]42C)C1(C)C` (stereo partly drawn) [LD 026-2], the inhibition at 0.1 µM in experiment [3] (0.1 μM) was 2.51%; in the experiment on HepG2 cells [4] (0.1 μM), 20.3%; with Panc1 cells (0.1 μM), 8.79%. The inhibition at 1 µM in experiment [3] (1 μM) was 6.88%; with HepG2 cells [4] (1 μM), 32.8%; in the experiment with Panc1 cells (1 μM) it was 7.59%. The inhibition at 10 µM in experiment [3] (10 μM) was -2.33%; in the experiment on HepG2 cells [4] (10 μM) it was 20.8%; with Panc1 cells (10 μM), 14.6%. Besides, the values for the inhibition at 100 µM (in experiment [3] (100 μM); in the experiment with HepG2 cells [4] (100 μM); with Panc1 cells (100 μM)) were 33%, 33.9% and 21.5%, respectively.
